# Measurements from patent US20240228458A1, “PYRIMIDINE DERIVATIVE HAVING PROTEIN KINASE INHIBITORY ACTIVITY, AND THERAPEUTIC PHARMACEUTICAL COMPOSITION COMPRISING SAME” (THERAPEX CO., LTD., priority 2021, published 2024).
# How the values were obtained:
# Format in all cases: cell-based
# [1] = tested on: Ba/F3 cells expressing EGFR-wt; experiment: Growth inhibition (GI50) of Ba/F3 cells expressing EGFR-wt, Celltiter glo; settings: Mus musculus, BaF3, 72 h
# Summary of the method: (§1)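 Viability read by CellTiter-Glo after 72 h compound exposure (37 °C, 5% CO2) of variant-expressing Ba/F3 cells plated at 100,000 cells/ml. Dosing 4 h post-seeding; 10-pt 4-fold series from 2 mM stock; 0.5% DMSO. GI50 = molar concentration (μM) giving half-maximal growth inhibition.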
# [2] = tested on: Ba/F3 cells expressing del19/T790M/C797S (EGFR-DTC); experiment: Growth inhibition (GI50) of Ba/F3 cells expressing del19/T790M/C797S (EGFR-DTC), Celltiter glo; settings: Mus musculus, BaF3, 72 h
# Summary of the method: as §1
# [3] = tested on: Ba/F3 cells expressing L858R/T790M/C797S (EGFR-LTC); experiment: Growth inhibition (GI50) of Ba/F3 cells expressing L858R/T790M/C797S (EGFR-LTC), Celltiter glo; settings: Mus musculus, BaF3, 72 h
# Summary of the method: as §1
# [4] = tested on: Ba/F3 cells expressing del19/T790M (EGFR-DT); experiment: Growth inhibition (GI50) of Ba/F3 cells expressing del19/T790M (EGFR-DT), Celltiter glo; settings: Mus musculus, BaF3, 72 h
# Summary of the method: as §1
# [5] = tested on: Ba/F3 cells expressing L858R/T790M (EGFR-LT); experiment: Growth inhibition (GI50) of Ba/F3 cells expressing L858R/T790M (EGFR-LT), Celltiter glo; settings: Mus musculus, BaF3, 72 h
# Summary of the method: as §1
# parental Ba/F3 cell line = experiment: Growth inhibition (GI50) of the parental Ba/F3 cell line (not introduced with EGFR variants), Celltiter glo; settings: Mus musculus, BaF3, 72 h, parental Ba/F3 cells
# Summary of the method: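 Parental Ba/F3 cells (100,000 cells/ml) were treated with 10-point, 4-fold compound dilutions (0.5% DMSO; top stock 2 mM) for 72 h at 37 °C, 5% CO2. Viability was read by CellTiter-Glo; GI50 is the concentration (μM) giving 50% growth inhibition.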
GI50 [1] [nM],GI50 [2] [nM],GI50 [3] [nM],GI50 [4] [nM],GI50 [5] [nM],SMILES,GI50 (parental Ba/F3 cell line) [nM]
100 to 500,25 to 100,25 to 100,1 to 25,1 to 25,"Cc1cc(Nc2ncc(Cl)c(Nc3cc4c(cc3NS(C)(=O)=O)CCO4)n2)c(Cl)cc1N1CCC(N2CCN(C)CC2)CC1 [Example 173, N-(6-((5-chloro-2-((2-chloro-5-methyl-4-(4-(4-methylpiperazin-1-yl)piperidin-1-yl)phenyl)amino)pyrimidin-4-yl)amino)-2,3-dihydrobenzofuran-5-yl)methanesulfonamide]",100 to 500
100 to 500,1 to 25,25 to 100,1 to 25,1 to 25,"COc1cc(N2CCC(N3CCCN(C)CC3)CC2)c(Cl)cc1Nc1ncc(Cl)c(Nc2cc3c(cc2NS(C)(=O)=O)CCO3)n1 [Example 174, N-(6-((5-chloro-2-((5-chloro-2-methoxy-4-(4-(4-methyl-1,4-diazepan-1-yl)piperidin-1-yl)phenyl)amino)pyrimidin-4-yl)amino)-2,3-dihydrobenzofuran-5-yl)methanesulfonamide]",500 to 2000
500 to 2000,25 to 100,25 to 100,100 to 500,100 to 500,"Cc1cc(Nc2ncc(Br)c(Nc3cc4c(cc3NS(C)(=O)=O)CCO4)n2)c(Cl)cc1N1CCC(N2CCN(C)CC2)CC1 [Example 175, N-(6-((5-bromo-2-((2-chloro-5-methyl-4-(4-(4-methylpiperazin-1-yl)piperidin-1-yl)phenyl)amino)pyrimidin-4-yl)amino)-2,3-dihydrobenzofuran-5-yl)methanesulfonamide]",> 10000
100 to 500,1 to 25,1 to 25,25 to 100,25 to 100,"COc1cc(N2CCC(N3CCN(C)CC3)CC2)c(C)cc1Nc1ncc(Cl)c(Nc2cc(Cl)c(F)cc2NS(C)(=O)=O)n1 [Example 176, N-(4-chloro-2-((5-chloro-2-((2-methoxy-5-methyl-4-(4-(4-methylpiperazin-1-yl)piperidin-1-yl)phenyl)amino)pyrimidin-4-yl)amino)-5-fluorophenyl)methanesulfonamide]",500 to 2000
2000 to 10000,25 to 100,1 to 25,100 to 500,100 to 500,"Cc1cc(Nc2ncc(Br)c(Nc3cc(Cl)c(F)cc3NS(C)(=O)=O)n2)c(Cl)cc1N1CCC(N2CCN(C)CC2)CC1 [Example 177, N-(2-((5-bromo-2-((2-chloro-5-methyl-4-(4-(4-methylpiperazin-1-yl)piperidin-1-yl)phenyl)amino)pyrimidin-4-yl)amino)-4-chloro-5-fluorophenyl)methanesulfonamide]",2000 to 10000
500 to 2000,1 to 25,25 to 100,25 to 100,25 to 100,"COc1cc(N2CCC(N3CCN(C)CC3)CC2)c(Cl)cc1Nc1ncc(Br)c(Nc2cc(Cl)c(F)cc2NS(C)(=O)=O)n1 [Example 178, N-(2-((5-bromo-2-((5-chloro-2-methoxy-4-(4-(4-methylpiperazin-1-yl)piperidin-1-yl)phenyl)amino)pyrimidin-4-yl)amino)-4-chloro-5-fluorophenyl)methanesulfonamide]",2000 to 10000
100 to 500,100 to 500,25 to 100,100 to 500,25 to 100,"Cc1cc(Nc2ncc(Cl)c(Nc3cc(Cl)ccc3N(C)S(C)(=O)=O)n2)c(Cl)cc1N1CCC(N2CCC(N(C)C)C2)CC1 (stereo not drawn) [Example 179, N-(4-chloro-2-((5-chloro-2-((2-chloro-4-(4-(3-(dimethylamino)pyrrolidin-1-yl)piperidin-1-yl)-5-methylphenyl)amino)pyrimidin-4-yl)amino)phenyl)-N-methylmethanesulfonamide]",500 to 2000
500 to 2000,25 to 100,25 to 100,25 to 100,25 to 100,"Cc1cc(Nc2ncc(Cl)c(Nc3cc(Cl)ccc3N(C)S(C)(=O)=O)n2)c(Cl)cc1N1CCC(N2CCCN(C)CC2)CC1 [Example 180, N-(4-chloro-2-((5-chloro-2-((2-chloro-5-methyl-4-(4-(4-methyl-1,4-diazepan-1-yl)piperidin-1-yl)phenyl)amino)pyrimidin-4-yl)amino)phenyl)-N-methylmethanesulfonamide]",2000 to 10000
500 to 2000,100 to 500,25 to 100,25 to 100,25 to 100,"COc1cc(N2CCC(N3CCN(C)CC3)CC2)c(Cl)cc1Nc1ncc(Cl)c(Nc2cc(Cl)c(F)cc2NS(C)(=O)=O)n1 [Example 181, N-(4-chloro-2-((5-chloro-2-((5-chloro-2-methoxy-4-(4-(4-methylpiperazin-1-yl)piperidin-1-yl)phenyl)amino)pyrimidin-4-yl)amino)-5-fluorophenyl)methanesulfonamide]",2000 to 10000
2000 to 10000,25 to 100,25 to 100,25 to 100,25 to 100,"Cc1cc(Nc2ncc(Cl)c(Nc3cc(Cl)c(F)cc3NS(C)(=O)=O)n2)c(Cl)cc1N1CCC(N2CCN(C)CC2)CC1 [Example 182, N-(4-chloro-2-((5-chloro-2-((2-chloro-5-methyl-4-(4-(4-methylpiperazin-1-yl)piperidin-1-yl)phenyl)amino)pyrimidin-4-yl)amino)-5-fluorophenyl)methanesulfonamide]",> 10000
1 to 25,1 to 25,1 to 25,1 to 25,1 to 25,"COc1cc(N2CCC(N3CCN(C)CC3)CC2)c(Cl)cc1Nc1ncc(Br)c(Nc2cc3c(cc2NS(C)(=O)=O)CCO3)n1 [Example 183, N-(6-((5-bromo-2-((5-chloro-2-methoxy-4-(4-(4-methylpiperazin-1-yl)piperidin-1-yl)phenyl)amino)pyrimidin-4-yl)amino)-2,3-dihydrobenzofuran-5-yl)methanesulfonamide]",25 to 100
25 to 100,100 to 500,1 to 25,1 to 25,1 to 25,"CCc1cc(Nc2ncc(Br)c(Nc3cc4c(cc3NS(C)(=O)=O)CCO4)n2)c(OC)cc1N1CCC(N2CCN(C)CC2)CC1 [Example 184, N-(6-((5-bromo-2-((5-ethyl-2-methoxy-4-(4-(4-methylpiperazin-1-yl)piperidin-1-yl)phenyl)amino)pyrimidin-4-yl)amino)-2,3-dihydrobenzofuran-5-yl)methanesulfonamide]",500 to 2000
100 to 500,1 to 25,1 to 25,25 to 100,25 to 100,"COc1cc(N2CCC(N3CCCN(C)CC3)CC2)c(C)cc1Nc1ncc(Br)c(Nc2cc3c(cc2NS(C)(=O)=O)CCO3)n1 [Example 188, N-(6-((5-bromo-2-((2-methoxy-5-methyl-4-(4-(4-methyl-1,4-diazepan-1-yl)piperidin-1-yl)phenyl)amino)pyrimidin-4-yl)amino)-2,3-dihydrobenzofuran-5-yl)methanesulfonamide]",500 to 2000
25 to 100,1 to 25,1 to 25,1 to 25,25 to 100,"COc1cc(N2CCC(N3CCCN(C)CC3)CC2)c(Cl)cc1Nc1ncc(Br)c(Nc2cc3c(cc2NS(C)(=O)=O)CCO3)n1 [Example 189, N-(6-((5-bromo-2-((5-chloro-2-methoxy-4-(4-(4-methyl-1,4-diazepan-1-yl)piperidin-1-yl)phenyl)amino)pyrimidin-4-yl)amino)-2,3-dihydrobenzofuran-5-yl)methanesulfonamide]",500 to 2000
100 to 500,25 to 100,25 to 100,1 to 25,1 to 25,"CCc1cc(Nc2ncc(Cl)c(Nc3ccc4nccnc4c3P(C)(C)=O)n2)c(OC)cc1N1CCC(N2CCN(C)CC2)CC1 [Example 190, (6-((5-chloro-2-((5-ethyl-2-methoxy-4-(4-(4-methylpiperazin-1-yl)piperidin-1-yl)phenyl)amino)pyrimidin-4-yl)amino)quinoxalin-5-yl)dimethylphosphine oxide]",100 to 500
100 to 500,1 to 25,1 to 25,1 to 25,1 to 25,"CCc1cc(Nc2ncc(Br)c(Nc3cc(Cl)ccc3NS(C)(=O)=O)n2)c(OC)cc1N1CCC(N2CCN(C)CC2)CC1 [Example 191, N-(2-((5-bromo-2-((5-ethyl-2-methoxy-4-(4-(4-methylpiperazin-1-yl)piperidin-1-yl)phenyl)amino)pyrimidin-4-yl)amino)-4-chlorophenyl)methanesulfonamide]",2000 to 10000
25 to 100,1 to 25,1 to 25,1 to 25,1 to 25,"CCc1cc(Nc2ncc(Br)c(Nc3ccc4nccnc4c3P(C)(C)=O)n2)c(OC)cc1N1CCC(N2CCN(C)CC2)CC1 [Example 192, (6-((5-bromo-2-((5-ethyl-2-methoxy-4-(4-(4-methylpiperazin-1-yl)piperidin-1-yl)phenyl)amino)pyrimidin-4-yl)amino)quinoxalin-5-yl)dimethylphosphine oxide]",100 to 500
